Structures can show the parent of a compound that is named as a salt.
Key:
[1] = tested on: NRF2 reporter cells; assay: Cell viability measured with ATP assay alongside NRF2 translocation (FIG. 4 to 7); conditions: for cell viability, percentage of the vehicle control: human
Excerpt: FIGS. 5A to 5C: bar and line graphs showing NRF2 translocation presented as log 2 fold change compared to vehicle control (bars) and cell viability measured with ATP assay and presented as a percentage of the vehicle control (line) for anatabine (FIG. 5A), dimethyl fumarate (AlfaAesar) (FIG. 5B), and nornicotine (FIG. 5C).
FIGS. 6A to 6C: bar graphs showing NRF2 translocation presented as log 2 fold change compared to vehicle control (bars) and cell viability measured with ATP assay and presented as a percentage of the vehicle control (line) for anatabine (FIG. 6A), dimethyl fumarate (Sigma) (FIG. 6B), and sulforaphane (FIG. 6C).
FIGS. 7A and […]: bar graphs showing NRF2 translocation presented as log 2 fold change compared to vehicle control (bars) and cell viability measured with ATP assay and presented as a percentage of the vehicle control (line) for cotinine (FIG. 7A) and nicotine (FIG. 7B).

[2] = tested on: NRF2; assay: NRF2 luciferase assay (NRF2/ARE reporter cell line); type: cell-based, human; conditions: for effect on the NRF2 pathway: FIG. 4, tobacco alkaloids; for maximum log 2-fold change of NRF2 activation: at 12.5 μM for sulforaphane, 125 μM and 250 μM for DMF, 1000 μM for anatabine
Excerpt: A HEK-293 NRF2/ARE luciferase reporter cell line was acquired from Signosis (USA). According to Signosis, this NRF2 luciferase reporter stable cell line had been stably transfected with pTA-ARE-luciferase reporter vector, which contains 4 repeats of antioxidant response binding sites, a minimal promoter upstream of the firefly luciferase coding region, along with a hygromycin expression vector. Following selection, the hygromycin resistant clones were subsequently screened for TBHQ-induced luciferase activity. The clone with the highest fold induction was selected and expanded to produce this stable cell line.
4, 8 or 24 hours after stimulation of the NRF2 reporter cells luminescence was measured using a FLUOstar Omega plate reader.

SMILES | cell viability, percentage of the vehicle control ([1]; 500 μM) | effect on the NRF2 pathway [2] | cell viability at higher concentrations [1] | maximum log 2-fold change of NRF2 activation [2] | also measured
CN1C(=O)CC[C@H]1c1cccnc1 [cotinine] | below 85% | do not substantially affect | – | – | cell viability, percentage of the vehicle control ([1]; 1000 μM): below 85%
COC(=O)/C=C/C(=O)OC [DMF, dimethyl fumarate] | ~0% | – | significantly reduced | 6 to 7 | NRF2 activation, log 2-fold change ([2]; 125 μM, DMF from AlfaAesar): 6.74; NRF2 activation, log 2-fold change ([2]; 125 μM, DMF from Sigma): 6.90; NRF2 activation, log 2-fold change ([2]; 250 μM, DMF from AlfaAesar): 6.81; NRF2 activation, log 2-fold change ([2]; 250 μM, DMF from Sigma): 6.67
CN1CCCC1c1cccnc1 (centres unmarked) [nicotine] | – | do not substantially affect | – | – | –
C[S+]([O-])CCCCN=C=S (centres unmarked) [sulforaphane] | – | – | significantly reduced | approximately 5 | cell viability, percentage of the vehicle control ([1]; 25 μM): around 50%; NRF2 activation, log 2-fold change ([2]; 0.78 to 50 μM (P<0.01)): increase
c1cncc([C@@H]2CCCN2)c1 [nornicotine] | – | do not substantially affect | – | – | –
c1cncc([C@@H]2CCCCN2)c1 [anabasine] | – | do not substantially affect | – | – | –
